Experimental data: patent US10358469B2, “Methods and pharmaceutical compositions for the treatment of cancer” (INSERM (INSTITUT NATIONAL DE LA SANTÉ ET DE LA RECHERCHE …, priority 2014, dated 2019)
Entries after “also recorded” stand apart in the source; their conditions may differ. Non-standard residues stand in square brackets, D forms with d.

How the values were obtained:
A549 cells = assay: Cell viability (MTT) of A549 cells under low serum / serum deprivation; type: cell-based; details: for induction of cell death of A549 cells: 10 μM, serum deprivation, FIG. 1C; for induction of cell death of A549 cells / cytotoxicity (decrease of A549 viability) relative to comparison peptide, dose-response: 24 hours; for cytotoxicity (decrease of A549 viability) relative to comparison peptide, dose-response: various concentrations, low-serum conditions, FIG. 2A / 5A; for cellular viability: 2 µM
Procedure: (A) Karpas 1106, SU-DHL-5, SeAx and HUT-78 cells were plated at a densities of 6×10^3 in 96 well plates (100 μL total volume per well) and treated for 24 hours in a 37° C. incubator (5% CO2) with increasing concentrations of the Antp-AAC-11-LZ (363-399). 20 μL MTS reagent was then added to each well and plates were incubated for an additional 4 hours. Absorbance was measured at 490 nm using a 96-well plate reader. The extent to which the Antp-AAC-11-LZ (363-399) peptide inhibited cell proliferation was calculated as a percentage of the absorbance in each well containing the Antp-AAC-11-LZ (363-399) peptide relative to wells containing no peptide (negative control). Each bar represents the mean±s.d. from at least three independent experiments. (B) Indicated cells were plated at a densities of 4.5×10^3 in 96 well plates (100 μL total volume per well) and allowed to attach overnight in a 37° C. incubator (5% CO2). Media was removed from cells and replaced with media containing Antp-AAC-11-LZ (363-399) peptide at various concentrations (100 μL total volume per well) peptide and the plates were incubated for 24 hours. The MTT assay was then completed and data analysis was performed as described herein. […] A549 cells were plated at a densities of 4.5×10^3 in 96 well plates (100 μL total volume per well) and allowed to attach overnight in a 37° C. incubator (5% CO2). Media was removed from cells and replaced with media containing the indicated peptides at 10 μM (100 μL total volume per well) and the plates were incubated for 24 hours. The MTT assay was then completed and data analysis was performed as described herein.
(A) A549 cells were plated at a densities of 4.5×10^3 in 96 well plates (100 μL total volume per well) and allowed to attach overnight in a 37° C. incubator (5% CO2). Media was removed from cells and replaced with media containing the indicated peptides at various concentrations (100 μL total volume per well) peptide in the absence of serum and the plates were incubated for 24 hours. The MTT assay was then completed and data analysis was performed as described herein. (B) A549 or HaCat cells were plated at a densities of 4.5×10^3 in 96 well plates (100 μL total volume per well) and allowed to attach overnight in a 37° C. incubator (5% CO2). Media was removed from cells and replaced with media containing the indicated peptides at 10 μM (100 μL total volume per well) peptide in the absence of serum and the plates were incubated for 24 hours. The MTT assay was then completed and data analysis was performed as described herein.
A549 cells were plated at a densities of 4.5×10^3 in 96 well plates (100 μL total volume per well) and allowed to attach overnight in a 37° C. incubator (5% CO2). Cells were left untreated or pre-treated with 100 μM Z-VAD-FMK for 2 h. […] The MTT assay was then completed and data analysis was performed as described herein.
(A) A549 cells were plated at a densities of 4.5×10^3 in 96 well plates (100 μL total volume per well) and allowed to attach overnight in a 37° C. incubator (5% CO2). Media was removed from cells and replaced with media containing the indicated Antp-AAC-11-LZ peptides at various concentrations (100 μL total volume per well) peptide and the plates were incubated for 24 hours. The MTT assay was then completed and data analysis was performed as described herein. (B) A549 or HaCat cells were plated at a densities of 4.5×10^3 in 96 well plates (100 μL total volume per well) and allowed to attach overnight in a 37° C. incubator (5% CO2). Media was removed from cells and replaced with media containing the indicated peptides at 10 μM (100 μL total volume per well) peptide in the absence of serum and the plates were incubated for 24 hours. The MTT assay was then completed and data analysis was performed as described herein.

[1] = tested on: human triple-negative breast cancer xenograft PDX02; assay: Triple-negative breast cancer patient-derived xenograft PDX02 in nude mice; type: in vivo; details: 2.4 mg/kg i.p., 7 daily injections, p=0.01
Procedure: (§1) Breast cancer fragments were obtained from patients at the time of surgery, with informed written patient consent. After imaging-guided human tumor biopsies had been performed, fragments of 30 to 60 mm^3 were subcutaneously grafted in 6-week-old NMRI-nude mice (Centre-Elevage-Janvier, France), under xylasin (10 mg/kg)/ketamin (100 mg/kg) anesthesia. Mice were maintained in specific pathogen-free animal housing (Institut Universitaire d'Hematologie) and received estrogen (17 mg/mL) diluted in drinking water. Xenografts were characterized and subsequently subcutaneously transplanted from mouse to mouse. […] Two human triple-negative breast cancer (HBC) xenografts models were used in our experiments (PDX01 and PDX02). […] Following transplantation (n=6 per model) tumor growth was assessed by measuring tumor size in two dimension using a Vernier caliper. Tumor volume was calculated using the formula [3.14×long axis×short axis×short axis]/6 (Kjonniksen et al., 1989). […] Mice were weighted and the tumor size was measured by a caliper and recorded daily. Fourteen days after beginning of the treatment mice were sacrificed. The tumors, kidney, lungs, heart, liver, pancreas and spleen were taken and fixed. Paraffin-embedded sections were prepared and stained with hematoxylin and eosin for histological analysis.

[2] = tested on: human triple-negative breast cancer xenograft PDX01; assay: Triple-negative breast cancer patient-derived xenograft PDX01 in nude mice; type: in vivo; details: 2.4 mg/kg i.p., 7 daily injections, p=0.01
Procedure: as §1

[3] = tested on: leukemic cells isolated from hMRP8-PML/RARα transgenic mice; assay: Acute promyelocytic leukemia (APL) mouse model, survival; type: in vivo
Procedure: FIG. 9: Antp-AAC-11-LZ (363-399) peptide treatment of leukemic mice protects against disease progression. Mice were challenged with 10^4 leukemic cells isolated from hMRP8-PML/RARα transgenic mice, allowed to engraft for 10 d, and were then injected intraperitonaly each day for 7 consecutive days with Antp-AAC-11-LZ (363-399) peptide (1.8 mg/kg) or vehicle (normal saline solution), or subcutaneously implanted with a 21-d release pellet containing 5 mg ATRA (n=6 for each treatment). Mice were monitored for survival.
We use an established in vivo APL model based on syngenic grafts of leukemic blasts from hMRP8-PML/RARα transgenic mice, as described by Brown et al. (Brown et al., 1997). This model mimics human APL, both in its biological characteristics and its response to conventional therapeutic drugs such as all-trans retinoic acid (ATRA) and 100% of the mice die of the disease (Brown et al., 1997; Kogan et al., 2000; Lallemand-Breitenbach et al., 1999). […] leukemic cells isolated from bone marrow, spleen, or lymph nodes of leukemic hMRP8-PML/RARα transgenic mice (Brown et al., 1997) were injected into the tail vein of 6-7 week old syngeneic FVB/N mice. Establishment of leukemia was assessed by the appearance of high leukocyte and low platelet counts at around day 8 (Brown et al., 1997). Ten days after transplantation, mice implanted with leukemic cells were randomly assigned to either type of treatment (n=6). Antp-AAC-11-LZ (363-399) peptide (1.8 mg/kg) or vehicle (normal saline solution) was injected intraperitonaly each day for 7 consecutive days. Retinoic acid was administrated by subcutaneous implantation of a 21-d release pellet containing 5 mg ATRA (Innovative Research of America). Mice were then monitored for survival.

D3H2LN cells = assay: Proliferation of D3H2LN cells (not showed); type: cell-based
HaCat cells = assay: Cell viability (MTT) of nonmalignant HaCat cells in the absence of serum; type: cell-based; details: 10 μM, 24 hours, FIG. 2B / 5B
Procedure: FIG. 2: TAT-AAC-11-LZ (363-399), RI-TAT-AAC-11-LZ (363-399) and Cter-Antp-AAC-11-LZ (363-399) peptides preferentially kill tumor cells. (A) A549 cells were plated at a densities of 4.5×10^3 in 96 well plates (100 μL total volume per well) and allowed to attach overnight in a 37° C. incubator (5% CO2). Media was removed from cells and replaced with media containing the indicated peptides at various concentrations (100 μL total volume per well) peptide in the absence of serum and the plates were incubated for 24 hours. The MTT assay was then completed and data analysis was performed as described herein. (B) A549 or HaCat cells were plated at a densities of 4.5×10^3 in 96 well plates (100 μL total volume per well) and allowed to attach overnight in a 37° C. incubator (5% CO2). Media was removed from cells and replaced with media containing the indicated peptides at 10 μM (100 μL total volume per well) peptide in the absence of serum and the plates were incubated for 24 hours. […]
Viability of cells cultured in the 96-well culture plates was assessed by measuring mitochondrial dehydrogenase activity, using the colorimetric CellTiter 96® AQueous One Solution Cell Proliferation Assay (Promega), according to the manufacturer′ instructions. […] The color can then be quantified using a simple colorimetric assay. The results are read on a multiwall scanning spectrophotometer (ELISA reader).

AAC-11-LZ (363-399): AKLNAEKLKDFKIRLQYFARGLQVYIRQLRLALQGKT (SEQ ID NO: 3) (Synthetic AAC-11-LZ (363-399))
induction of cell death of A549 cells (A549 cells): neither the Penetratin peptide alone, the AAC-11-LZ (363-399) peptide without the Penetratin linkage nor the mutant peptide Antp-AAC-11-LZ (363-399) L/G did induce cell death | final mean tumor volume relative to control-treated mice [1]: less than 50% | final mean tumor volume relative to control-treated mice [2]: less than 35%

CC1=C(/C=C/C(C)=C/C=C/C(C)=C/C(=O)O)C(C)(C)CCC1 [ATRA, all-trans retinoic acid, reference compound]
mice surviving up to 67 d ([3]; n=6 per treatment): one mouse | mean survival time ([3]; peptide 1.8 mg/kg i.p. daily for 7 days, ATRA 5 mg 21-d release pellet s.c., from day 10 after graft, n=6): 56 days

Ac-RQIKIWFKKQNRRMKWKKFARGLQVYIRQLRLALQGKT-NH2 [Antp-AAC-11-LZ (380-399)]
cytotoxicity (decrease of A549 viability) relative to comparison peptide, dose-response (A549 cells): substantial but weaker cell death than the Antp-AAC-11-LZ (363-399) peptide

Ac-YGRKKRRQRRRGGGAKLNAEKLKDFKIRLQYFARGLQVYIRQLRLALQGKT-NH2 [TAT-AAC-11-LZ (363-399)]
proliferation at the concentrations used for migration (D3H2LN cells): neither the Antp-AAC-11-LZ (363-399) or TAT-AAC-11-LZ (363-399) peptides impaired proliferation | cytotoxicity (decrease of A549 viability) relative to comparison peptide, dose-response (A549 cells): at least as effective as compared to the Antp-AAC-11-LZ (363-399) peptide | cytotoxicity in nonmalignant cells (HaCat cells): largely more resistant

Antp-AAC-11-LZ (363-399) L/G: RQIKIWFKKQNRRMKWKKAKLNAEKLKDFKIRGQYFARGGQVYIRQGRLALQGKT (SEQ ID NO: 5), leucines 377, 384 and 391 mutated to glycines (Ac-RQIKIWFKKQNRRMKWKKAKLNAEKLKDFKIRGQYFARGGQVYIRQGRLALQGKT-NH2)
induction of cell death of A549 cells (A549 cells): neither the Penetratin peptide alone, the AAC-11-LZ (363-399) peptide without the Penetratin linkage nor the mutant peptide Antp-AAC-11-LZ (363-399) L/G did induce cell death

Ac-RQIKIWFKKQNRRMKWKKKDFKIRLQYFARGLQVYIRQLRLALQG-NH2 [Antp-AAC-11-LZ (371-397)]
cytotoxicity (decrease of A549 viability) relative to comparison peptide, dose-response (A549 cells): reduced cytotoxicity compared with the Antp-AAC-11-LZ (371-399) peptide; also recorded: significantly higher cell death compared with the Antp-AAC-11-LZ (363-399) parent peptide

Ac-RQIKIWFKKQNRRMKWKKKDFKIRLQYFARGLQVYIRQL-NH2 [Antp-AAC-11-LZ (371-391)]
cytotoxicity (decrease of A549 viability) relative to comparison peptide, dose-response (A549 cells): reduced cytotoxicity compared with the Antp-AAC-11-LZ (371-399) peptide; also recorded: significantly higher cell death compared with the Antp-AAC-11-LZ (363-399) parent peptide

Ac-RQIKIWFKKQNRRMKWKKKDFKIRLQYFARGLQVYIRQLRLALQGKT-NH2 [Antp-AAC-11-LZ (371-399)]
cellular viability (A549 cells): 33.2 % of control | cytotoxicity (decrease of A549 viability) relative to comparison peptide, dose-response (A549 cells): markedly increased cytotoxicity potency compared to the parent peptide

Ac-RQIKIWFKKQNRRMKWKKLQYFARGLLRLALQGKT-NH2 [Antp-AAC-11-LZ (377-399 4385-390)]
cellular viability (A549 cells): 3 % of control | cytotoxicity (decrease of A549 viability) relative to comparison peptide, dose-response (A549 cells): highest activity

Ac-[dR][dR][dR][dQ][dR][dR][dK][dK][dR]G[dY]G[dT][dK]G[dQ][dL][dA][dL][dR][dL][dQ][dR][dI][dY][dV][dQ][dL]G[dR][dA][dF][dY][dQ][dL][dR][dI][dK][dF][dD][dK][dL][dK][dE][dA][dN][dL][dK][dA]-NH2 [RI-TAT-AAC-11-LZ (363-399)]
cytotoxicity (decrease of A549 viability) relative to comparison peptide, dose-response (A549 cells): more effective than the TAT-AAC-11-LZ (363-399) peptide | cytotoxicity in nonmalignant cells (HaCat cells): very little cytotoxicity
